The test system of one series is IL-6 production. The experiment in a line: LPS-induced IL-6 production model test. In kind it is in vivo, C57BL/6J mice. The note with it: 10 mg/kg oral, 30 min before LPS 1 mg/kg i.p., serum IL-6 60 min after LPS, mice. The method, then:
In order to evaluate the inhibitory activity of inflammatory cytokine production in the present compounds, LPS-induced IL-6 production model evaluation was carried out. The specific method is described below.
An appropriate amount of each compound was weighed, triturated with an agate mortar, and suspended or dissolved in 1% methyl cellulose solution to prepare 1 mg/mL solution.
C57BL/6J mice (male, Purchaser: Charles River Laboratories Japan, Inc.) were weighted, before divided into normal group, control group and each compound-administered group based on the measured body weight using a random number, wherein each group contained 6 samples. The mice were manually held in hands and forced orally administered the 1% methyl cellulose solution (normal and control group) or each administration solution comprising the compound (each compound-administered group) at a dose of 10 mL/kg into stomach using a feeding needle. After 30 minutes from administration of the 1% methyl cellulose solution or each compound administration solution, the mice were manually held in hands and intraperitoneally administered physiological saline (normal group) or LPS solution (control and each compound-administered group) at a dose of 1 mg/kg. After 60 minutes from administration of the LPS solution, whole blood was collected from the abdominal vena cava of each mouse under isoflurane inhalation anesthesia (available from Mylan Seiyaku Ltd.), and the mice were euthanized. The collected blood was allowed to stand at room temperature for one hour, and then centrifuged at 1,500 G for 10 minutes to collect a serum (supernatant). The collected serum was stored in a deep freezer set at −80° C. until the measurement of IL-6 in the serum. The IL-6 concentration in the serum of each mouse was measured by a commercially available kit (available from R&D systems, Cat No. M6000B), according to the protocol attached thereto.
The IL-6 production inhibition rate (%) was calculated by the following equation using Microsoft EXCEL 2010. IL-6 production inhibition rate (%)=100−{(average value of IL-6 concentration in serum of each compound-administered group)−(average value of IL-6 concentration in serum of normal group))/(average value of IL-6 concentration in serum of control group)−(average value of IL-6 concentration in serum of normal group)}×100

Series [1] can be described thus: Pharmacokinetics test in rats (oral administration). Type of series: in vivo, LEW/CrlCrlj rats. As to conditions: mean n = 4. The method, then: In order to evaluate the transition of plasma concentration of the present compound after oral administration, pharmacokinetics was evaluated in rats. The specific method is described below.
Appropriate amounts of Example 71 and various salts thereof were weighed, triturated with an agate mortar, and suspended or dissolved in 1% methyl cellulose solution to 2 mg/mL (as a converted quantity of Example 71 considering the correction of purify).
LEW/CrlCrlj rats (male, purchased form Charles River Laboratories Japan, Inc.) were weighted, a random number based on the measured body weight was used to avoid difference in average body weight among groups, and the rats were divided into groups, wherein each groups contained 4 rats. The rats were manually held in hands and forced orally administered each administration solution comprising the compound at a dose of 5 mL/kg into stomach using a feeding needle. At 0.5, 1, 3, 6 and 24 hours after the administration of each administration solution comprising the compound, the rats were manually held in hands, and blood was collected from the jugular vein or subclavian vein using a heparin-treated injection syringe. The obtained blood was centrifuged at 1,500 G for 10 minutes, and plasma was collected as an actual sample. In addition, plasma was collected from rats before the administration of the compound in the same manner, which was used as blank plasma. The collected actual samples and blank plasma were stored in a freezer set at −70° C. until the measurement of the compound concentration. To 20 μL of each actual sample were added 20 μL of acetonitrile (available from Kishida Chemical Co., Ltd., Cat No. 140-00401), 100 μL of MilliQ water and 20 μL of the internal standard solution to prepare an analytical sample. In addition, to 20 μL of blank plasma were added 20 μL or 40 μL of acetonitrile (available from Kishida Chemical Co., Ltd., Cat No. 140-00401) and 100 μL of MilliQ water (a blank sample or a zero sample, respectively). A standard sample for a calibration curve was prepared by mixing 20 μL of blank plasma, 20 μL of the standard solution for a calibration curve in each concentration, 100 μL of MilliQ water and 20 μL of the internal standard solution. Whole amount of the prepared each sample was applied to a diatomaceous earth column for liquid-liquid extraction (available from Biotage, Cat No. 820-0200), tert-butyl methyl ether (available from Kanto Chemical Co., Inc., Cat No. 04418-5B) was added and eluted by natural dropping, and the obtained eluate was concentrated to dryness under a nitrogen stream. The residue was dissolved in the re-dissolved solution and 10 μL of each sample was injected into the LC/MS/MS apparatus.
LC/MS/MS analysis was carried out under the following conditions. Analytical column: Hydrosphere C18, 3 μm, 2.0 mm I.D.×50 mm (from YMC, Cat No. HS12S03-0502WT)
Flow rate: 0.3 mL/min. Column temperature: 50° C. Peak area calculation, peak area ratio calculation, preparation of calibration and quantification used in calculating the concentration for the LC/MS/MS analysis were carried out by Analyst ver.1.6.2 (available from AB Sciex). In addition, by using the obtained concentration measurement results, these were analyzed by Non-compartmental model of a pharmacokinetics analysis program WinNonlin ver.6.1 (Pharsight Corporation), and the pharmacokinetics parameter was calculated.

Setting [2] is: oral 2 mg/mL solution at 5 mL/kg.

Usually Cmax stands for the maximum level reached in the sampled fluid or tissue. The term MRT denotes a mean duration of stay, worked out from the concentration-time curve. What is called Tmax is the time from dosing to the highest level. Consider `CC(=O)Nc1ccc(C2=NN(Cc3cccnc3)c3nnc(C)n3-c3sc(C)c(C)c32)cc1.Cc1ccc(S(=O)(=O)O)cc1` [1 Tosylate of Example 71], for which the “LPS-induced IL-6 production (% Inhibition @ 10 mg/kg)” value in the series with IL-6 production is listed as 85.0%. Moreover, in series [1] (setting [2]), the AUCinf came to 101.11 ng·h/mL, the AUCt was determined as 95.75 ng·h/mL, the peak concentration (Cmax) came to 62.1 ng/mL and the Kel amounted to 0.52 h⁻¹. For the same compound, in series [1] (setting [2]), the MRT was 1.48 h, the T1/2 is given as 1.42 h and the Tmax was found to be 30 min. Besides, in series [1] (plasma, 0.5 h after oral 2 mg/mL solution at 5 mL/kg), the “Concentration (ng/mL), sampling time 0.5 h” value is on record as 62.1 ng/mL. The “Concentration (ng/mL), sampling time 1 h” value in series [1] (plasma, 1 h after oral 2 mg/mL solution at 5 mL/kg) turned out to be 34.7 ng/mL. Besides, the “Concentration (ng/mL), sampling time 3 h” value in series [1] (plasma, 3 h after oral 2 mg/mL solution at 5 mL/kg) was 7.04 ng/mL. Besides, the “Concentration (ng/mL), sampling time 6 h” value in series [1] (plasma, 6 h after oral 2 mg/mL solution at 5 mL/kg) is 2.46 ng/mL.

The record behind these values is US11186588B2 (AYUMI PHARMACEUTICAL CORPORATION, priority 2017, dated 2021).
